Results reported in patent publication US20240173389A1, “Compositions and Methods For Reducing Immune Intolerance” (LAPIX THERAPEUTICS, INC., priority 2021, published 2024).

Assays:
[1] = tested on: TLR7; test: TNF-α production by splenocytes in response to TLR7 ligand ssPolyU; assay type: cell-based, C57BL/6 mice; settings: 48 hours, OPLT 1.85 μg/ml, dexamethasone 100 μg/ml, rapamycin 625 μg/ml
Description: (§1) OPLT was dissolved in sterile PBS at 100 μM, and pH was adjusted to approximately 7.5. Splenocytes from naïve C57BL/6 mice were stained with CFSE, prepared, cultured, and dosed. Cells were seeded at 2×10^5 cells/well.
(§2) To evaluate the effects of OPLT on cytokine production by splenocytes in response to different TLR ligands, splenocytes were incubated with one of the following TLR ligands in triplicate: PGN, LPS, ODN CPG, dsRNA, or ssRNA, as per group assignment. Cells were then treated as follows: • Control: No treatment; • OPLT: Cells were dosed with 1.85 μg/ml; • Dexamethasone: Cells were dosed with 100 μg/ml; • Rapamycin: Cells were dosed with 625 μg/ml. Cells were incubated for 48 hours before collecting the supernatant for TNF-α analysis.
(§3) The supernatant was collected for TNF-α analysis by ELISA.

[2] = tested on: TLR4; test: TNF-α production by splenocytes in response to TLR4 ligand LPS; assay type: cell-based, C57BL/6 mice; settings: 48 hours, OPLT 1.85 μg/ml, dexamethasone 100 μg/ml, rapamycin 625 μg/ml
Description: as §1, §2, §3

[3] = tested on: TLR3; test: TNF-α production by splenocytes in response to TLR3 ligand poly(I:C); assay type: cell-based, C57BL/6 mice; settings: 48 hours, OPLT 1.85 μg/ml, dexamethasone 100 μg/ml, rapamycin 625 μg/ml
Description: as §1, §2, §3

[4] = tested on: TLR2; test: TNF-α production by splenocytes in response to TLR2 ligand PGN; assay type: cell-based, C57BL/6 mice; settings: 48 hours, OPLT 1.85 μg/ml, dexamethasone 100 μg/ml, rapamycin 625 μg/ml
Description: as §1, §2, §3

[5] = tested on: TLR9; test: TNF-α production by splenocytes in response to TLR9 ligand ODN CpG; assay type: cell-based, C57BL/6 mice; settings: 48 hours, OPLT 1.85 μg/ml, dexamethasone 100 μg/ml, rapamycin 625 μg/ml
Description: as §1, §2, §3

[6] = tested on: RAW264.7 mouse monocyte macrophage cells; test: SAR screen in RAW 264.7 cells with FVIII antigen, TNF-α ELISA (Example 5); assay type: cell-based; settings: for TNF-α induction: liposomal (DMPC 70:30) or free form dosed 0.001-100 μM
Excerpt: (§4) RAW264.7 mouse monocyte macrophage cells were exposed to an increasing concentration of selected compounds in the presence of human plasma-derived FVIII as a model antigen protein. TNF-α and TGF-β production were monitored.
All molecules were formulated in RPMI media in aseptic conditions. The pH was adjusted to approximately 7.5 before dosing cells. 1,2-dimyristoyl-sn-glycero-3-phosphocholine (DM PC):PS liposomes were made at 70:30 molar ratio to make “PS” liposomes.
(§5) RAW 264.7 cells were prepared, cultured, and dosed. Cells were seeded at 4×10^5 cells/well. OPLS, OPLT and L-homocysteic acid (LHA) were dosed at 100, 85, 70, 60, 50, 30, 10, 3, 1, 0.3, 0.1, 0.03 and 0.01 mM, or at 100, 85, 70, 60, 50, 30, 10, 3 and 1 mM, as indicated. O-Benzyl-L-serine (OBLS), S-phenyl-L-cysteine (SPLC), S-benzyl-L-cysteine (SBLC) and OBLT were dosed at 100, 85, 70, 60, 50, 30, 10, 3, 1, 0.3, 0.1, 0.03, 0.01, 0.003 and 0.001 μM. Finally, 100 μl of 40 μg/ml of FVIII as a sample antigen was added to each cell. LPS and free protein were used as positive and baseline controls, respectively. TNF-α and TGF-β ELISA were conducted as per the manufacturer's instructions (R & D Systems).

[7] = tested on: RAW264.7 mouse monocyte macrophage cells; test: SAR screen in RAW 264.7 cells with FVIII antigen, TGF-β ELISA (Example 5); assay type: cell-based; settings: free compounds dosed in mM range
Excerpt: as §4
All molecules were formulated in RPMI media in aseptic conditions. The pH was adjusted to approximately 7.5 before dosing cells. 1,2-dimyristoyl-sn-glycero-3-phosphocholine (DM PC):PS liposomes were made at 70:30 molar ratio to make “PS” liposomes. The remaining liposomes were made by hydrating a DMPC lipid layer in PBS buffer containing a test compound to give a final molar ratio of 70:30 of DMPC:test compound.
as §5

[8] = tested on: B57BL6 Mice; test: Anti-FVIII titer analysis in mice given FVIII co-mixed with compound SC QW 4 weeks, then FVIII re-challenge (Example 1); assay type: in vivo; settings: end of treatment after one-week washout
Description: (§6) OPLT was dissolved in sterile PBS, and pH was adjusted to approximately 7.5. OPLS, a comparator compound, was dissolved in sterile PBS, and pH was adjusted to approximately 7.5. FVIII in PBS was used as a control. For treatment, FVIII was co-mixed with OPLT, OPLS or diluted in PBS before administration, as per group assignment for each animal. For re-challenge, FVIII was administered alone SC to all animals regardless of group assignment. […] For a head-to-head comparison, 5 mg/injection was selected for OPLT. FVIII was dosed at 1 μg/injection.
The study was conducted in two parts: a treatment phase and a re-challenge phase. The objective of the treatment phase was to test the ability of OPLT to reduce the immunogenicity of FVIII as an antigen compared to animals administered FVIII or FVIII+OPLS. Animals were injected with FVIII, FVIII+OPLT, or FVIII+OPLS SC QW for 4 weeks. Blood samples were collected for anti-FVIII titer analysis after a one-week washout period from the last dose. The objective of the re-challenge phase of the study was to evaluate the duration of tolerance. Animals that have been successfully tolerized toward FVIII will not mount a robust immune response towards FVIII upon subsequent exposure to FVIII. After the washout period, animals were injected with (1 μg) FVIII SC QW for 2 weeks. Blood samples were collected one week after each FVIII injection for anti-FVIII titer analysis.

[9] = tested on: FoxP3+/CD4+ T-cell; test: Ex vivo flow cytometry of splenocytes for FoxP3+/CD4+ T-cells after FVIII treatment period (Example 1); assay type: in vivo, mice
Description: as §6
One week after the last dose in the treatment period, one animal from each group was selected at random for ex vivo analysis of the T-cell population. Spleens were collected and a single-cell suspension was prepared for cellular phenotyping by flow cytometry. Cells were stained and gated for CD4+ T-cells. FoxP3 expression level was evaluated for each animal.

[10] = tested on: Splenocytes; test: Splenocyte culture with anti-CD3/anti-CD28 without antigen, Foxp3+/CD4+ by flow cytometry (Example 4); assay type: cell-based; settings: 100 μM, three days, anti-CD3/anti-CD28, absence of any antigen
Description: Splenocytes were cultured for three days in presence of anti-CD3/anti-CD28 in presence of 100 μM PS or 100 μM OPLT in absence of any antigen.

C[C@@H]1C[C@H]2[C@@H]3CCC4=CC(=O)C=C[C@]4(C)[C@@]3(F)[C@@H](O)C[C@]2(C)[C@@]1(O)C(=O)CO [Dexamethasone, dexamethasone]
TNF-α mean ([1]; Poly U 0 ng/ml): 0 pg/mL
TNF-α mean ([1]; Poly U 1 ng/ml, CTL 44): 0 pg/mL
TNF-α mean ([1]; Poly U 10 ng/ml, CTL 51): 0 pg/mL
TNF-α mean ([1]; Poly U 100 ng/ml, CTL 229): 41 pg/mL
TNF-α mean ([2]; LPS 0 ng/ml): 0 pg/mL
TNF-α mean ([2]; LPS 1 ng/ml, CTL 143): 0 pg/mL
TNF-α mean ([2]; LPS 10 ng/ml, CTL 840): 0 pg/mL
TNF-α mean ([2]; LPS 100 ng/ml, CTL 1091): 0 pg/mL
TNF-α mean ([3]; PolyI:C 0 ng/ml): 0 pg/mL
TNF-α mean ([3]; PolyI:C 1 ng/ml, CTL 0): 0 pg/mL
TNF-α mean ([3]; PolyI:C 10 ng/ml, CTL 109): 0 pg/mL
TNF-α mean ([3]; PolyI:C 100 ng/ml, CTL 162): 0 pg/mL
TNF-α mean ([4]; PGN 0 ng/ml): 0 pg/mL
TNF-α mean ([4]; PGN 1 ng/ml, CTL 730): 0 pg/mL
TNF-α mean ([4]; PGN 10 ng/ml, CTL 725): 0 pg/mL
TNF-α mean ([4]; PGN 100 ng/ml, CTL 834): 0 pg/mL
TNF-α mean ([5]; ODN CpG 0 ng/ml): 0 pg/mL
TNF-α mean ([5]; ODN CpG 1 ng/ml, CTL 0): 0 pg/mL
TNF-α mean ([5]; ODN CpG 10 ng/ml, CTL 338): 0 pg/mL
TNF-α mean ([5]; ODN CpG 100 ng/ml, CTL 1220): 0 pg/mL

N[C@@H](CCS(=O)(=O)O)C(=O)O [LHA, L-homocysteic acid]
TNF-α production (suppression) versus OPLS ([6]; free compounds dosed in mM range, FVIII antigen): more potent inhibitors of TNF-α
TGF-β production versus OPLS [7]: more potent inducers of TGF-β

N[C@@H](COCc1ccccc1)C(=O)O [OBLS, O-Benzyl-L-serine]
TNF-α induction ([6]; FVIII antigen): failed to induce TNF-α

N[C@@H](Cc1ccc(OCc2ccccc2)cc1)C(=O)O [OBLT, O-benzyl-L-tyrosine]
TNF-α induction ([6]; FVIII antigen): failed to induce TNF-α

N[C@@H](COP(=O)(O)O)C(=O)O [OPLS, O-phospho-L-serine, reference compound]
anti-FVIII titers versus FVIII control group [8]: statistically lower than the FVIII control group
animals that developed anti-FVIII antibodies ([8]; 5 mg/injection + FVIII SC QW 4 weeks, FVIII control 8/8): 5/8
increase in FoxP3+/CD4+ compared to the FVIII alone group ([9]; 5 mg/injection co-mixed with FVIII 1 μg SC QW 4 weeks, splenocytes of one animal per group one week after last dose): 66%
FoxP3+/CD4+ T-cell (flow cytometry of splenocytes) ([9]; 5 mg/injection co-mixed with FVIII SC QW 4 weeks, one animal per group, FVIII alone 2.94): 4.89

CO[C@H]1C[C@@H]2CC[C@@H](C)[C@@](O)(O2)C(=O)C(=O)N2CCCC[C@H]2C(=O)O[C@H]([C@H](C)C[C@@H]2CC[C@@H](O)[C@H](OC)C2)CC(=O)[C@H](C)/C=C(\C)[C@@H](O)[C@@H](OC)C(=O)[C@H](C)C[C@H](C)/C=C/C=C/C=C/1C [Rapamycin, rapamycin]
TNF-α mean ([1]; Poly U 0 ng/ml): 0 pg/mL
TNF-α mean ([1]; Poly U 1 ng/ml, CTL 44): 0 pg/mL
TNF-α mean ([1]; Poly U 10 ng/ml, CTL 51): 29 pg/mL
TNF-α mean ([1]; Poly U 100 ng/ml, CTL 229): 14 pg/mL
TNF-α mean ([2]; LPS 0 ng/ml): 0 pg/mL
TNF-α mean ([2]; LPS 1 ng/ml, CTL 143): 0 pg/mL
TNF-α mean ([2]; LPS 10 ng/ml, CTL 840): 0 pg/mL
TNF-α mean ([2]; LPS 100 ng/ml, CTL 1091): 0 pg/mL
TNF-α mean ([3]; PolyI:C 0 ng/ml): 0 pg/mL
TNF-α mean ([3]; PolyI:C 1 ng/ml, CTL 0): 0 pg/mL
TNF-α mean ([3]; PolyI:C 10 ng/ml, CTL 109): 0 pg/mL
TNF-α mean ([3]; PolyI:C 100 ng/ml, CTL 162): 0 pg/mL
TNF-α mean ([4]; PGN 0 ng/ml): 0 pg/mL
TNF-α mean ([4]; PGN 1 ng/ml, CTL 730): 0 pg/mL
TNF-α mean ([4]; PGN 10 ng/ml, CTL 725): 0 pg/mL
TNF-α mean ([4]; PGN 100 ng/ml, CTL 834): 0 pg/mL
TNF-α mean ([5]; ODN CpG 0 ng/ml): 0 pg/mL
TNF-α mean ([5]; ODN CpG 1 ng/ml, CTL 0): 0 pg/mL
TNF-α mean ([5]; ODN CpG 10 ng/ml, CTL 338): 0 pg/mL
TNF-α mean ([5]; ODN CpG 100 ng/ml, CTL 1220): 0 pg/mL

N[C@@H](CSCc1ccccc1)C(=O)O [SBLC, S-benzyl-L-cysteine]
TNF-α induction ([6]; FVIII antigen): failed to induce TNF-α

N[C@@H](CSc1ccccc1)C(=O)O [SPLC, S-phenyl-L-cysteine]
TNF-α induction ([6]; FVIII antigen): failed to induce TNF-α

phosphatidyl serine [PS, reference compound]
fold difference between the ability of OPLS and PS to induce TNF-α ([6]; OPLS versus PS): 1,000 fold
increase in Foxp3+/CD4+ compared to control [10]: 76%
